From ChEMBL document CHEMBL2375223, “Disulfide linked pyrazole derivatives inhibit phagocytosis of opsonized blood cells” (Bioorg Med Chem Lett, 2013)
Calls of active or inactive are those of the source. No cut-off for these calls is given here.

Assays:
[1] = target: High affinity immunoglobulin gamma Fc receptor I (Homo sapiens) (UniProt P12314); test: Inhibition of FCgamma receptor in human PBMC assessed as inhibition of opsonized RBC phagocytosis at 5 uM incubated for 1 hr prior to RBC addition measured after 2 hrs by monocyte monolayer assay relative to control
[2] = tested on: PBMC; test: Induction of apoptosis in human PBMC at 5 uM assessed as apoptotic index after 1 hr by Annexin V-APC/propidium iodide staining-based FACS analysis relative to IVIG; assay type: functional
[3] = target: High affinity immunoglobulin gamma Fc receptor I (Homo sapiens) (UniProt P12314); test: Inhibition of FCgamma receptor in human PBMC assessed as inhibition of opsonized RBC phagocytosis at 1 mM incubated for 1 hr prior to RBC addition measured after 2 hrs by monocyte monolayer assay relative to control

High affinity immunoglobulin gamma Fc receptor I (Homo sapiens), sequence (P12314 whole entry): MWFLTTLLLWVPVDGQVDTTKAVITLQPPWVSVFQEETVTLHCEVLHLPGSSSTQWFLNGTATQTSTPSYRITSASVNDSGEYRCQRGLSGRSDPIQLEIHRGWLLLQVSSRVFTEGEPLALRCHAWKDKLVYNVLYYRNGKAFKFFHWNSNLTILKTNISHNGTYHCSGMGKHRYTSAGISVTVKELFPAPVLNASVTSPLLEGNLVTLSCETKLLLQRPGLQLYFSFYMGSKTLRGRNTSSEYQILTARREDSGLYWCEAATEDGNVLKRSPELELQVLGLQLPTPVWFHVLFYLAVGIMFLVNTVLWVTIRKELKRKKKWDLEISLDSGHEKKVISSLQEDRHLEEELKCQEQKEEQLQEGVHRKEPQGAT

Cc1nn(-c2ccccc2)c(S)c1C(=O)c1ccno1
inhibition [1]: inactive

Cc1nn(-c2ccccc2)c(SSc2c(C(=O)N3CCOCC3)c(C)nn2-c2ccccc2)c1C(=O)N1CCOCC1
inhibition [1]: 20%
fold change (FC) [2]: 1.88

Cc1nn(-c2ccccc2)c(S)c1C(=O)c1ccccc1
inhibition [1]: 0%
inhibition [3]: inactive
fold change (FC) [2]: 1.29

Cc1nn(-c2ccccc2)c(SSc2c(C(=O)c3cccs3)c(C)nn2-c2ccccc2)c1C(=O)c1cccs1
inhibition [1]: 19%
fold change (FC) [2]: 0.69

Cc1cc(SSc2cc(C)nn2-c2ccccc2)n(-c2ccccc2)n1
inhibition [1]: 43%
fold change (FC) [2]: 2.78

Cc1nn(-c2ccccc2)c(SSc2c(C(=O)c3ccccc3)c(C)nn2-c2ccccc2)c1C(=O)c1ccccc1
inhibition [1]: 22%
fold change (FC) [2]: 1.04

Cc1nn(-c2ccccc2)c(SSc2c(C(=O)N3CCCCC3)c(C)nn2-c2ccccc2)c1C(=O)N1CCCCC1
inhibition [1]: 34%
fold change (FC) [2]: 1.87
